Target: interleukin-1 receptor-associated kinase 4 (IRAK4) (Homo sapiens, UniProt Q9NWZ3)
Test: biochemical

Chain of interleukin-1 receptor-associated kinase 4 (IRAK4) (Q9NWZ3 whole entry): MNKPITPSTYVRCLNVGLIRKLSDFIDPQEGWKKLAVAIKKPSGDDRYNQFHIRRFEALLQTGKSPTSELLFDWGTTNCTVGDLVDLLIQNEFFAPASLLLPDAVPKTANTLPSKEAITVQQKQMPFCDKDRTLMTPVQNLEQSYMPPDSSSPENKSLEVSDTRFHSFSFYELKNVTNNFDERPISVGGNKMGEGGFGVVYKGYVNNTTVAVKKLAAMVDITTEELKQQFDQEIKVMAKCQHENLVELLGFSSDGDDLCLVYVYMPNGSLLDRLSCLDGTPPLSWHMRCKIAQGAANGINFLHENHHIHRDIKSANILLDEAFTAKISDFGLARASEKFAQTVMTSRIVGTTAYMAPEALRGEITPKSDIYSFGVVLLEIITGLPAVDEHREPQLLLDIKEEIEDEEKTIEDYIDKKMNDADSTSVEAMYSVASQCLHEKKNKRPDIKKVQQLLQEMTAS

## CN(C)C [TMA, trimethylamine]
  Kd: 14 nM

Source: paper PMC12727497, “Inhibition of IRAK4 by microbial trimethylamine blunts metabolic inflammation and ameliorates glycemic control” (Nature Metabolism, 2025)
